Values after ≈ are worked out from the molar mass of the structure shown. Active and inactive are the calls of the source. The calls are words filed in the database; no cut-off is given here.
Experiments:
Bile acid receptor [1] = target: T1, Bile acid receptor (Homo sapiens, UniProt Q96RI1); test: Agonist activity at GST-tagged human FXR-LBD in presence of luorescein-SRC2-2 coactivator peptide by TR-FRET assay
T1 sequence (Q96RI1 whole entry): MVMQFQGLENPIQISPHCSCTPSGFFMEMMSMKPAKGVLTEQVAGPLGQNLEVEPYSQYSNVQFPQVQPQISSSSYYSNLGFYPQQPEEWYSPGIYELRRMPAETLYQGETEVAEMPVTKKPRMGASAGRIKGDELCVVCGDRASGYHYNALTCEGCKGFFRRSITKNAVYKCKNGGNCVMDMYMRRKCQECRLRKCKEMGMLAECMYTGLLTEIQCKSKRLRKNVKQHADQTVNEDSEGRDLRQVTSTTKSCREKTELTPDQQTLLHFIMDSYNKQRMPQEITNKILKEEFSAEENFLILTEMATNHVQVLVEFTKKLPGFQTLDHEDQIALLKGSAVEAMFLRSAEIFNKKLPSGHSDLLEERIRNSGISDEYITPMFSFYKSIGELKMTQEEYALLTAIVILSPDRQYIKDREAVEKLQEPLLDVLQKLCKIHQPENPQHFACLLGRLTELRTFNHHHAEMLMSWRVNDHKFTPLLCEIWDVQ

Bile acid receptor [2] = target: T1, Bile acid receptor; test: Agonist activity at human GAL4-FXR-LBD expressed in HEK293T cells assessed as transcriptional activity measured after 16 to 20 hrs by luciferase reporter gene assay; assay type: cell-based
[3] = Solubility of the compound in PBS buffer at pH 7.4; assay type: physicochemical
[4] = Metabolic stability in human liver microsomes assessed as half life at 1 uM measured upto 120 mins by UPLC/MS/MS analysis; assay type: ADME, Microsome
[5] = Metabolic stability in rat liver microsomes assessed as half life at 1 uM measured upto 120 mins by UPLC/MS/MS analysis; assay type: ADME, Microsome
[6] = Metabolic stability in dog liver microsomes assessed as half life at 1 uM measured upto 120 mins by UPLC/MS/MS analysis; assay type: ADME, Canis lupus familiaris, Microsome
[7] = Metabolic stability in cynomolgus monkey liver microsomes assessed as half life at 1 uM measured upto 120 mins by UPLC/MS/MS analysis; assay type: ADME, Macaca fascicularis, Microsome
[8] = AUC (0 to t) in Balb/c mouse at 1 mg/kg, iv measured after 5 mins by LC-MS/MS analysis; assay type: ADME, organism-based; parameters: time 5 min, dose 1 mg/kg, route iv; conditions: in vivo
[9] = Half life in Balb/c mouse at 1 mg/kg, iv measured after 5 mins by LC-MS/MS analysis; assay type: ADME, organism-based; conditions: in vivo
[10] = Clearance in Balb/c mouse at 1 mg/kg, iv measured after 5 mins by LC-MS/MS analysis; assay type: ADME, organism-based; conditions: in vivo
[11] = Volume of distribution at steady state in Balb/c mouse at 1 mg/kg, iv measured after 5 mins by LC-MS/MS analysis; assay type: ADME, organism-based; conditions: in vivo, read-out: Vdss
[12] = Cmax in Balb/c mouse at 5 mg/kg, po measured after 12 hrs by LC-MS/MS analysis; assay type: ADME, organism-based; parameters: dose 5 mg/kg, time 12 hrs, route po; conditions: in vivo
[13] = Tmax in Balb/c mouse at 5 mg/kg, po measured after 12 hrs by LC-MS/MS analysis; assay type: ADME, organism-based; conditions: in vivo
[14] = AUC (0 to t) in Balb/c mouse at 5 mg/kg, po measured after 12 hrs by LC-MS/MS analysis; assay type: ADME, organism-based; parameters: dose 5 mg/kg, time 12 hrs, route po; conditions: in vivo
[15] = Half life in Balb/c mouse at 5 mg/kg, po measured after 12 hrs by LC-MS/MS analysis; assay type: ADME, organism-based; conditions: in vivo
[16] = Oral bioavailability in Balb/c mouse at 5 mg/kg measured after 12 hrs by LC-MS/MS analysis; assay type: ADME, organism-based; conditions: in vivo
[17] = AUC (0 to t) in Sprague-Dawley rat at 3 mg/kg, iv measured after 5 mins by LC-MS/MS analysis; assay type: ADME, organism-based; parameters: time 5 min, dose 3 mg/kg, route iv; conditions: in vivo
[18] = Half life in Sprague-Dawley rat at 3 mg/kg, iv measured after 5 mins by LC-MS/MS analysis; assay type: ADME, organism-based; conditions: in vivo
[19] = Volume of distribution at steady state in Sprague-Dawley rat at 3 mg/kg, iv measured after 5 mins by LC-MS/MS analysis; assay type: ADME, organism-based; conditions: in vivo
[20] = Cmax in Sprague-Dawley rat at 9 mg/kg, po measured after 12 hrs by LC-MS/MS analysis; assay type: ADME, organism-based; parameters: time 12 hrs, dose 9 mg/kg, route po; conditions: in vivo
[21] = Tmax in Sprague-Dawley rat at 9 mg/kg, po measured after 12 hrs by LC-MS/MS analysis; assay type: ADME, organism-based; conditions: in vivo
[22] = AUC (0 to t) in Sprague-Dawley rat at 9 mg/kg, po measured after 12 hrs by LC-MS/MS analysis; assay type: ADME, organism-based; parameters: dose 9 mg/kg, time 12 hrs, route po; conditions: in vivo
[23] = Half life in Sprague-Dawley rat at 9 mg/kg, po measured after 12 hrs by LC-MS/MS analysis; assay type: ADME, organism-based; conditions: in vivo
[24] = Oral bioavailability in Sprague-Dawley rat at 9 mg/kg measured after 12 hrs by LC-MS/MS analysis; assay type: ADME, organism-based; conditions: in vivo
[25] = AUC (0 to t) in Beagle dog at 1 mg/kg, iv measured after 5 mins by LC-MS/MS analysis; assay type: ADME, organism-based, Canis lupus familiaris; parameters: dose 1 mg/kg, time 5 min, route iv; conditions: in vivo
[26] = Half life in Beagle dog at 1 mg/kg, iv measured after 5 mins by LC-MS/MS analysis; assay type: ADME, organism-based, Canis lupus familiaris; conditions: in vivo
[27] = Clearance in Beagle dog at 1 mg/kg, iv measured after 5 mins by LC-MS/MS analysis; assay type: ADME, organism-based, Canis lupus familiaris; conditions: in vivo
[28] = Volume of distribution at steady state in Beagle dog at 1 mg/kg, iv measured after 5 mins by LC-MS/MS analysis; assay type: ADME, organism-based, Canis lupus familiaris; conditions: in vivo, read-out: Vdss
[29] = Cmax in Beagle dog at 3 mg/kg, po measured after 12 hrs by LC-MS/MS analysis; assay type: ADME, organism-based, Canis lupus familiaris; parameters: time 12 hrs, dose 3 mg/kg, route po; conditions: in vivo
[30] = Tmax in Beagle dog at 3 mg/kg, po measured after 12 hrs by LC-MS/MS analysis; assay type: ADME, organism-based, Canis lupus familiaris; conditions: in vivo
[31] = AUC (0 to t) in Beagle dog at 3 mg/kg, po measured after 12 hrs by LC-MS/MS analysis; assay type: ADME, organism-based, Canis lupus familiaris; parameters: dose 3 mg/kg, time 12 hrs, route po; conditions: in vivo
[32] = Half life in Beagle dog at 3 mg/kg, po measured after 12 hrs by LC-MS/MS analysis; assay type: ADME, organism-based, Canis lupus familiaris; conditions: in vivo
[33] = Drug metabolism in dog assessed as taurine/glycine conjugates in plasma at 50 mg/kg, po; assay type: ADME, organism-based, Canis lupus familiaris; conditions: in vivo
[34] = Induction of SHP gene expression in C57BL/6J mouse liver assessed as fold increase at 3 mg/kg, po measured after 1 hr by RT-qPCR analysis; assay type: functional
[35] = Induction of BSEP gene expression in C57BL/6J mouse liver assessed as fold increase at 3 mg/kg, po measured after 12 hr by RT-qPCR analysis; assay type: functional
[36] = Induction of FGF15 gene expression in C57BL/6J mouse ileum assessed as fold increase at 3 mg/kg, po measured after 4 hr by RT-qPCR analysis relative to control; assay type: functional
[37] = Induction of FGF15 gene expression in C57BL/6J mouse ileum assessed as fold increase at 3 mg/kg, po measured after 1 hr by RT-qPCR analysis relative to control; assay type: functional
[38] = Induction of SHP gene expression in C57BL/6J mouse ileum assessed as fold increase at 3 mg/kg, po measured after 4 hr by RT-qPCR analysis relative to control; assay type: functional
[39] = Toxicity in C57BL/6J mouse assessed as change in body weight at 1 to 10 mg/kg, po qd; assay type: organism-based; conditions: in vivo, dose 1-10 mg/kg
Mus musculus [40] = test: Anti-nonalcoholic steatohepatitis activity against ccl4-induced C57BL/6J mouse model assessed as decrease in ALT level in liver at 1 to 10 mg/kg, po qd treated for 28 days; assay type: functional, organism-based; conditions: dose 1-10 mg/kg, time 28.0 day
Mus musculus [41] = test: Anti-nonalcoholic steatohepatitis activity against ccl4-induced C57BL/6J mouse model assessed as decrease in AST level in liver at 1 to 10 mg/kg, po qd treated for 28 days; assay type: functional, organism-based; conditions: dose 1-10 mg/kg, time 28.0 day
Mus musculus [42] = test: Anti-nonalcoholic steatohepatitis activity against ccl4-induced C57BL/6J mouse model assessed as reduction total cholesterol in serum at 1 to 10 mg/kg, po qd treated for 28 days; assay type: functional, organism-based; conditions: dose 1-10 mg/kg, time 28.0 day
Mus musculus [43] = test: Anti-nonalcoholic steatohepatitis activity against ccl4-induced C57BL/6J mouse model assessed as improvement in NAFLD activity score at 1 to 10 mg/kg, po qd treated for 28 days; assay type: functional, organism-based; conditions: dose 1-10 mg/kg, time 28.0 day
Mus musculus [44] = test: Anti-nonalcoholic steatohepatitis activity against ccl4-induced C57BL/6J mouse model assessed as clearance of liver steatosis at 10 mg/kg, po qd treated for 28 days; assay type: functional; conditions: time 28 day
Mus musculus [45] = test: Anti-nonalcoholic steatohepatitis activity against ccl4-induced C57BL/6J mouse model assessed as improvement in liver inflammation at 1 to 10 mg/kg, po qd treated for 28 days; assay type: functional, organism-based; conditions: dose 1-10 mg/kg, time 28.0 day
Mus musculus [46] = test: Anti-nonalcoholic steatohepatitis activity against ccl4-induced C57BL/6J mouse model assessed as improvement in fibrosis at 1 to 10 mg/kg, po qd treated for 28 days; assay type: functional, organism-based; conditions: dose 1-10 mg/kg, time 28.0 day

Compound `COc1cc(C(=O)O)cc2sc(N3CCN(Cc4c(-c5c(Cl)cccc5Cl)noc4C4CC4)C[C@H]3C)nc12` has an EC50 (Bile acid receptor [1]) of 5 nM, an EC50 (Bile acid receptor [2]) of 18 nM and a solubility [3] of 284 µM (≈ 163 µg/mL). For the same compound, the half-life at 1 µM [4] was 7.45 h, the half-life at 1 µM [5] was 1.93 h and the half-life at 1 µM [6] was 3.95 h. The half-life at 1 µM [7] was 2.57 h, the AUC(0-t) at 5 min [8] was 1010 ng·h/mL and the half-life [9] was 1.6 h. It also gave a clearance [10] of 16.5 mL/min/kg, a Vd [11] of 0.53 L/kg and a Cmax [12] of 3610 ng/mL. For the same compound, the Tmax [13] was 0.25 h, the AUC(0-t) at 12 h [14] was 3880 ng·h/mL and the half-life [15] was 1.52 h. It also gave a bioavailability [16] of 77.2%, an AUC(0-t) at 5 min [17] of 2610 ng·h/mL and a t1/2 [18] of 1.44 h. For the same compound, the Vdss [19] was 29.3 L/kg, the Cmax [20] was 1950 ng/mL and the Tmax [21] was 0.5 h. It also gave an AUC(0-t) at 12 h [22] of 4120 ng·h/mL, a half-life [23] of 2.1 h and a bioavailability [24] of 52.1%. It also gave an AUC(0-t) at 5 min [25] of 4590 ng·h/mL, a half-life [26] of 4.07 h and a clearance [27] of 3.63 mL/min/kg. It also gave a Vd [28] of 0.823 L/kg, a Cmax [29] of 1710 ng/mL and a Tmax [30] of 1 h. For the same compound, the AUC(0-t) at 12 h [31] was 8270 ng·h/mL, the half-life [32] was 9.9 h and the Drug metabolism [33] was “Metabolite_Notdetected”. The “fold change (FC)” value [34] was 12, the “fold change (FC)” value [35] was 4 and the “fold change (FC)” value [36] was 5. For the same compound, the “fold change (FC)” value [37] was 7, the “fold change (FC)” value [38] was ~30 and the Activity [39] was “Non-Toxic”. For the same compound, the Activity (Mus musculus [40]) was “Active”, the Activity (Mus musculus [41]) was “Active” and the Activity (Mus musculus [42]) was “Active”. The Activity (Mus musculus [43]) was “Active”, the Activity (Mus musculus [44]) was 100% and the Activity (Mus musculus [45]) was “Active”. The Activity (Mus musculus [46]) was “Active”.

From ChEMBL document CHEMBL5346955, “Discovery of HPG1860, a Structurally Novel Nonbile Acid FXR Agonist Currently in Clinical Development for the Treatment of Nonalcoholic Steatohepatitis” (J Med Chem, 2023)
